In patent publication US20250228239A1, “MOLECULES HAVING PESTICIDAL UTILITY, AND INTERMEDIATES, COMPOSITIONS, AND PROCESSES, RELATED THERETO” (priority 2024, published 2025):
Like-named read-outs stand apart in the source and are kept apart here.

Tests used:
Format in all cases: in vivo
[1] = test system: Beet Armyworm (Spodoptera exigua, LAPHEG); assay: Bioassays on Beet Armyworm (BAW), 128-well diet tray assay; conditions: Spodoptera exigua, Beet Armyworm
Method in brief: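 Second-instar larvae, one to five per well, were placed on artificial diet surface-treated with 50 μg/cm^2 compound in 90:10 acetone-water, eight wells per treatment. Trays were held 5–7 days at 25 °C, 14:10 light-dark. Percent mortality per well was averaged over eight wells.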

[2] = test system: Yellow Fever Mosquito (Aedes aegypti, AEDSAE); conditions: Yellow Fever Mosquito; for YFM: rating class; for YFM rating: Table ABC / ABC-DP rating
Method in brief: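 Mortality after 3 days at room temperature is the read-out, scored well by well and converted to a rating. Test molecules came from 4000 ppm stocks in DMSO, further diluted in 90:10 water/acetone, and were exposed to roughly 1-day-old larvae suspended in liver-powder water.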

[3] = test system: Cabbage Looper (Trichoplusia ni, TRIPNI); assay: Bioassays on Cabbage Looper (CL), 128-well diet tray assay; conditions: Trichoplusia ni, Cabbage Looper
Method in brief: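 One to five second-instar larvae per well on artificial diet surface-treated with 50 μg/cm^2 test molecule (applied in 90:10 acetone-water, dried). Held 5–7 days at 25° C, 14:10 light-dark; percent mortality recorded per well and averaged over eight wells.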

[4] = Table ABC / ABC-DP rating, read-out: BAW rating
[5] = Table ABC / ABC-DP rating, read-out: CL rating

| Compound | pest or weed control at 50 µg/cm2 ([1]; rating class, read-out: BAW) [%] | YFM [2] | pest or weed control at 50 µg/cm2 ([3]; rating class, read-out: CL) [%] | pest or weed control at 50 µg/cm2 [1, 4] [%] | YFM rating [2] | pest or weed control at 50 µg/cm2 [3, 5] [%] |
| --- | --- | --- | --- | --- | --- | --- |
| CC(OCC1CC1)C(=O)Nc1c(F)ccc(NC(=O)c2cc(NC(=O)[C@H]3[C@H](c4ccc(F)c(C(F)(F)F)c4)C3(Cl)Cl)ccc2Cl)c1F (stereo partly drawn) [F1745, 2-Chloro-N-(3-(2-(cyclopropylmethoxy)propanamido)-2,4-difluorophenyl)-5-((1R,3R)-2,2-dichloro-3-(4-fluoro-3-(trifluoromethyl)phenyl)cyclopropane-1-carboxamido)benzamide] | 50 to 100 | A (80–100) | 50 to 100 | – | – | – |
| CC(C)COC(C)C(=O)Nc1c(F)ccc(NC(=O)c2cc(NC(=O)[C@H]3[C@H](c4ccc(F)c(C(F)(F)F)c4)C3(Cl)Cl)ccc2Cl)c1F (stereo partly drawn) [F1746, 2-Chloro-5-((1R,3R)-2,2-dichloro-3-(4-fluoro-3-(trifluoromethyl)phenyl)cyclopropane-1-carboxamido)-N-(2,4-difluoro-3-(2-isobutoxypropanamido)phenyl)benzamide] | 50 to 100 | A (80–100) | 50 to 100 | – | – | – |
| CC(OCC(F)(F)F)C(=O)Nc1c(F)ccc(NC(=O)c2cc(NC(=O)[C@H]3[C@H](c4ccc(F)c(C(F)(F)F)c4)C3(Cl)Cl)ccc2Cl)c1F (stereo partly drawn) [F1747, 2-Chloro-5-((1R,3R)-2,2-dichloro-3-(4-fluoro-3-(trifluoromethyl)phenyl)cyclopropane-1-carboxamido)-N-(2,4-difluoro-3-(2-(2,2,2-trifluoroethoxy)propanamido)phenyl)benzamide] | 50 to 100 | A (80–100) | 50 to 100 | – | – | – |
| CN(C(=O)CC#N)c1c(F)ccc(NC(=O)c2cc(NC(=O)[C@H]3[C@H](c4ccc(F)c(C(F)(F)F)c4)C3(Cl)Cl)ccc2Cl)c1F [F1752, 2-Chloro-N-(3-(2-cyano-N-methylacetamido)-2,4-difluorophenyl)-5-((1R,3R)-2,2-dichloro-3-(4-fluoro-3-(trifluoromethyl)phenyl)cyclopropane-1-carboxamido)benzamide] | 50 to 100 | A (80–100) | 50 to 100 | – | – | – |
| CC(C#N)C(=O)Nc1c(F)ccc(NC(=O)c2cc(NC(=O)[C@H]3[C@H](c4ccc(F)c(C(F)(F)F)c4)C3(Cl)Cl)ccc2Cl)c1F (stereo partly drawn) [F1755, 2-Chloro-N-(3-(2-cyanopropanamido)-2,4-difluorophenyl)-5-((1R,3R)-2,2-dichloro-3-(4-fluoro-3-(trifluoromethyl)phenyl)cyclopropane-1-carboxamido)benzamide] | 50 to 100 | B (More than 0 – Less than 80) | 50 to 100 | – | – | – |
| O=C(Nc1ccc(F)c(I)c1F)c1cc(NC(=O)[C@H]2[C@H](c3ccc(F)c(C(F)(F)F)c3)C2(Cl)Cl)ccc1Cl [F1758, 2-Chloro-5-((1R,3R)-2,2-dichloro-3-(4-fluoro-3-(trifluoromethyl)phenyl)cyclopropane-1-carboxamido)-N-(2,4-difluoro-3-iodophenyl)benzamide] | 50 to 100 | A (80–100) | 50 to 100 | – | – | – |
| CCCC(OCC)C(=O)Nc1c(F)ccc(NC(=O)c2cc(NC(=O)[C@H]3[C@H](c4ccc(F)c(C(F)(F)F)c4)C3(Cl)Cl)ccc2Cl)c1F (stereo partly drawn) [F1759, 2-Chloro-5-((1R,3R)-2,2-dichloro-3-(4-fluoro-3-(trifluoromethyl)phenyl)cyclopropane-1-carboxamido)-N-(3-(2-ethoxypentanamido)-2,4-difluorophenyl)benzamide] | 50 to 100 | A (80–100) | 50 to 100 | – | – | – |
| CC(CC(=O)Nc1c(F)ccc(NC(=O)c2cc(NC(=O)[C@H]3[C@H](c4ccc(F)c(C(F)(F)F)c4)C3(Cl)Cl)ccc2Cl)c1F)C(F)(F)F (stereo partly drawn) [F1760, 2-Chloro-5-((1R,3R)-2,2-dichloro-3-(4-fluoro-3-(trifluoromethyl)phenyl)cyclopropane-1-carboxamido)-N-(2,4-difluoro-3-(4,4,4-trifluoro-3-methylbutanamido)phenyl)benzamide] | 50 to 100 | A (80–100) | 50 to 100 | – | – | – |
| CCN(C(=O)OC(C)(C)C)c1c(F)ccc(NC(=O)c2cc(NC(=O)[C@H]3[C@H](c4ccc(F)c(C(F)(F)F)c4)C3(Cl)Cl)ccc2Cl)c1F [F1761, tert-Butyl (3-(2-chloro-5-((1R,3R)-2,2-dichloro-3-(4-fluoro-3-(trifluoromethyl)phenyl)cyclopropane-1-carboxamido)benzamido)-2,6-difluorophenyl)(ethyl)carbamate] | 50 to 100 | A (80–100) | 50 to 100 | – | – | – |
| C#CCC(=O)N(CC)c1c(F)ccc(NC(=O)c2cc(NC(=O)[C@H]3[C@H](c4ccc(F)c(C(F)(F)F)c4)C3(Cl)Cl)ccc2Cl)c1F [F1763] | 50 to 100 | A (80–100) | 50 to 100 | – | – | – |
| C#CC(C)C(=O)N(CC)c1c(F)ccc(NC(=O)c2cc(NC(=O)[C@H]3[C@H](c4ccc(F)c(C(F)(F)F)c4)C3(Cl)Cl)ccc2Cl)c1F (stereo partly drawn) [F1764] | 50 to 100 | A (80–100) | 50 to 100 | – | – | – |
| O=C(COC(F)(F)F)Nc1c(F)ccc(NC(=O)c2cc(NC(=O)[C@H]3[C@H](c4ccc(Cl)c(Cl)c4)C3(Cl)Cl)ccc2Cl)c1F [F1766, 2-Chloro-5-((1R,3R)-2,2-dichloro-3-(3,4-dichlorophenyl)cyclopropane-1-carboxamido)-N-(2,4-difluoro-3-(2-(trifluoromethoxy)acetamido)phenyl)benzamide] | 50 to 100 | A (80–100) | 50 to 100 | – | – | – |
| CC(OC(F)(F)F)C(=O)Nc1c(F)ccc(NC(=O)c2cc(NC(=O)[C@H]3[C@H](c4ccc(Cl)c(Cl)c4)C3(Cl)Cl)ccc2Cl)c1F (stereo partly drawn) [F1767, 2-Chloro-5-((1R,3R)-2,2-dichloro-3-(3,4-dichlorophenyl)cyclopropane-1-carboxamido)-N-(2,4-difluoro-3-(2-(trifluoromethoxy)propanamido)phenyl)benzamide] | – | – | – | 50 to 100 | A (80–100) | 50 to 100 |
| O=C(COC(F)(F)F)Nc1c(F)ccc(NC(=O)c2cc(NC(=O)[C@H]3[C@H](c4ccc(F)c(Cl)c4)C3(Cl)Cl)ccc2Cl)c1F [F1768, 2-Chloro-5-((1R,3R)-2,2-dichloro-3-(3-chloro-4-fluorophenyl)cyclopropane-1-carboxamido)-N-(2,4-difluoro-3-(2-(trifluoromethoxy)acetamido)phenyl)benzamide] | – | – | – | 50 to 100 | A (80–100) | 50 to 100 |
| CC(OC(F)(F)F)C(=O)Nc1c(F)ccc(NC(=O)c2cc(NC(=O)[C@H]3[C@H](c4ccc(F)c(Cl)c4)C3(Cl)Cl)ccc2Cl)c1F (stereo partly drawn) [F1769, 2-Chloro-5-((1R,3R)-2,2-dichloro-3-(3-chloro-4-fluorophenyl)cyclopropane-1-carboxamido)-N-(2,4-difluoro-3-(2-(trifluoromethoxy)propanamido)phenyl)benzamide] | – | – | – | 50 to 100 | A (80–100) | 50 to 100 |
| CC(OC(F)(F)F)C(=O)Nc1c(F)ccc(NC(=O)c2cc(NC(=O)[C@H]3[C@H](c4ccc(F)c(C(F)(F)F)c4)C3(Cl)Cl)ccc2Cl)c1F (stereo partly drawn) [F1771, 2-Chloro-5-((1R,3R)-2,2-dichloro-3-(4-fluoro-3-(trifluoromethyl)phenyl)cyclopropane-1-carboxamido)-N-(2,4-difluoro-3-(2-(trifluoromethoxy)propanamido)phenyl)benzamide] | – | – | – | 50 to 100 | A (80–100) | 50 to 100 |
| O=C(COC(F)(F)F)Nc1c(F)ccc(NC(=O)c2cc(NC(=O)[C@H]3[C@H](c4cccc(C(F)(F)F)c4)C3(Cl)Cl)ccc2Cl)c1F [F1774, 2-Chloro-5-((1R,3R)-2,2-dichloro-3-(3-(trifluoromethyl)phenyl)cyclopropane-1-carboxamido)-N-(2,4-difluoro-3-(2-(trifluoromethoxy)acetamido)phenyl)benzamide] | – | – | – | 50 to 100 | A (80–100) | 50 to 100 |
| CC(OC(F)(F)F)C(=O)Nc1c(F)ccc(NC(=O)c2cc(NC(=O)[C@H]3[C@H](c4cccc(C(F)(F)F)c4)C3(Cl)Cl)ccc2Cl)c1F (stereo partly drawn) [F1775, 2-Chloro-5-((1R,3R)-2,2-dichloro-3-(3-(trifluoromethyl)phenyl)cyclopropane-1-carboxamido)-N-(2,4-difluoro-3-(2-(trifluoromethoxy)propanamido)phenyl)benzamide] | – | – | – | 50 to 100 | A (80–100) | 50 to 100 |
| CC(C)(C)OC(=O)N(C(=O)OC(C)(C)C)c1c(F)ccc(NC(=O)c2cc(NC(=O)[C@H]3[C@H](c4ccc(F)c(Br)c4)C3(Cl)Cl)ccc2Cl)c1F [F1776, tert-Butyl N-[3-[[5-[[(1R,3R)-3-(3-bromo-4-fluoro-phenyl)-2,2-dichloro-cyclopropanecarbonyl]amino]-2-chloro-benzoyl]amino]-2,6-difluoro-phenyl]-N-tert-butoxycarbonyl-carbamate] | – | – | – | 50 to 100 | A (80–100) | 50 to 100 |
